From patent US7024311B1, “COMPUTER-AIDED METHOD FOR THE PROVISION, IDENTIFICATION AND DESCRIPTION OF MOLECULES CAPABLE OF EXHIBITING A DESIRED BEHAVIOR, MORE PARTICULARLY IN THE PHARMACEUTICAL SECTOR, AND MOLECULES OBTAINED BY SAID METHOD” (Synt:EM S.A., priority 1997, dated 2006)
Several values for one entry are separate records, joined by “and”; a condition that tells them apart may be missing. Equal entries are not always repeated. Marks after values point to notes of the source that are not given here.

Key:
[1] = test system: CBA mouse recipients of C57B1/6 donor hearts; assay: heart-allograft survival in mice (abdominal heterotopic heart transplantation); format: in vivo; conditions: for mean graft survival time / MSTSD: CBA recipients of C57B1/6 donor hearts, peptide intraperitoneal daily from day of transplantation until day nine
Description: Abdominal heterotopic heart transplantation was carried out as described previously in J. Thorac. Cardiovasc. Surg., vol. 7, page 225 (1969).
CBA mouse recipients of C57B1/6 donor hearts were treated daily with different doses of peptide following organ transplantation. Peptides were dissolved in DMSO and diluted in PBS (final DMSO concentration 10%) before intraperitoneal administration. Animals were treated from the day of transplantation until day nine. Graft survival was monitored daily by direct palpation, and rejection was defined as termination of palpable cardiac contractility. The statistical significance of prolongation of heart allograft survival was calculated using the Mann-Whitney test.

[2] = test system: CBA mouse recipients of C57B1/6 donor hearts; conditions: cited from earlier work

Substance	MSTSD ([1]; dose not printed in table)	further results
NLRIALRYYW [peptide derived from peptide 2702.75-84]		mean graft survival time ([1]; dose not printed in table): 11.6 days
renlpialry	9.5 2.4 (13)	
ENLRIALR [shortened peptide derived from 2702.75-84]	8.5 0.7 (12)	
RMNLQTLRGY	7.5 0.7 (15)	
RVNLRTALRY		mean graft survival time ([1]; dose not printed in table): 8.5 days
YRLAIRLNER	12.1 2.8 (2)	MSTSD ([1]; dose not printed in table, listed as yrlairlner): 13.2 2.7 (2)
RVSLRNLLGY	8.0 0.5 (9)	
REDLRTLLRY	7.7 1.2 (11)	
RENLRIALRY [peptide derived from HLA-B2702, amino acids 75 to 84, reference compound]	11.4 2.6 (1)* and 11.4 4.1 (1)	heart-allograft survival ([2]; 80 mg/kg/day for 10 days following transplantation of B6 donor hearts into CBA recipients, n=8, p<0.01 vs untreated): 11.4 days; heart-allograft survival in mice ([2]; Transplantation, vol. 59, page 455 (1995)): prolongs heart-allograft survival in mice; effect on graft survival at lower doses ([2]; doses lower than 80 mg/kg/day): No effect on graft survival was observed; allograft survival, reference peptide ([1]; 80 mg/kg/day): prolonged allograft survival; effect at lower doses, reference peptide ([1]; doses lower than 80 mg/kg/day): no effect was observed; long-term graft survival ([1]; reference peptide administration): no long-term graft survival was induced
RESLRLLRGY	7.5 0.7 (10)	
RVDKRTLLGY	7.8 1.0 (8)	
RVDLRTLLRY	7.0 0.5 (7)	
YRLAIRLNVR		mean graft survival time ([1]; dose not printed in table): 12.5 days; mean graft survival time ([1]; dose not printed in table, listed as yrlairlnvr): 12.2 days
RVNLRIALRY [peptide derived from peptide 2702.75-84]	11.5 0.5 (3)	mean graft survival time ([1]; dose not given): 13.1 days
RVNLRTLRRY	8.0 0.5 (14)	
